# Data published in patent EP4699605A1, “USE OF NOVEL COMPOUND FOR TREATING INTRACTABLE DISEASES” (YJ Cerapeutics Inc., priority 2023, dated 2024).
# How the values were obtained:
# [1] = tested on: inflammatory factors; test: Inflammatory factor expression in L4-5 spinal cord of SNI model (RT-PCR, Western blot); type: in vivo, Sprague-Dawley rats; conditions: ipsilateral spinal cord tissue, 4 weeks after nerve injury, RT-PCR and Western blot
# Experimental: To be used as a peripheral nerve injury animal model, a sciatic nerve injury (SNI) model was prepared (FIG. 1C). Specifically, 200 to 220 g of male adult Sprague-Dawley rats were anesthetized by intraperitoneal injection of chloral hydrate (500 mg/kg), and then three terminal branches (tibial, common peroneal, and sural nerves) of the right sciatic nerve were approached, and the tibia nerve and the peroneal nerve were tightly ligated with 4-0 silk, and neurectomy was performed at a distal 3 mm position of the ligation site. At this time, a Sham group was a group that exposed only the sciatic nerve without damage.
# It was known that when neuropathic pain occurred, the activation of microglia and astrocytes expressed inflammatory factors including cytokines and chemokines to cause excessive excitation of surrounding neurons. Therefore, in order to confirm changes in inflammatory factor expression by YJ102 administration in the SNI animal model 4 weeks after nerve injury, RNA and protein were extracted from L4-5 spinal cord tissue and RT-PCR and Western blot analysis were performed. Specifically, for RT-PCR analysis, RNA was isolated from spinal cord tissue sections using a TRIZOL Reagent (Invitrogen) according to a manual, and 20 µl of the total mixture was prepared by using 1 µg of total RNA, and cDNA was synthesized using MMLV reverse transcriptase (Invitrogen). […]
# [2] = tested on: IMQ psoriasis animal model; test: Epidermal layer thickness (H&E) in IMQ psoriasis animal model; type: in vivo, C57BL/6 mouse
# Experimental: Psoriasis caused by excessive production of skin cells was a chronic skin disease associated with various factors, including autoimmune diseases, and its symptoms included red and thickened skin and abnormally occurring scaling. […] Specifically, the back region of a C57BL/6 mouse (male, 18 to 20 g, 8 weeks) (Daehan Biolink, Eumseong, Korea) was shaved to remove hair, and then applied with IMQ cream (83 mg/day) (5%) for consecutive 5 days from Day 0 to Day 4 to induce psoriasis-like skin inflammation, and a normal control mouse (Sham) was applied with Vaseline cream (FIG. 16A).
# On day 6, the skin tissue of the psoriasis mouse model was stained with Hematoxyline & Eosin, and the epidermal layer thickness was measured. Specifically, on Day 6, the skin of the mouse back was extracted, immersed in 4% paraformaldehyde for 24 hours to fix the tissue, and then paraffin blocks were made to prepare paraffin tissue sections with a thickness of 5 µm. In order to measure the thickness of the epidermal layer, paraffin tissue was stained with Hematoxylene & Eosin (Abcam) according to the manufacturer's protocol, and five sections of the epidermal layer from each mouse were photographed at 200x magnification using an optical microscope. The epidermal layer thickness was measured in tissues from a total of five mice (a total of 25 sections) and the average value was calculated.
# [3] = tested on: urothelial cells; test: Urothelial cell apoptosis in bladder after SCI (TUNEL, cleaved caspase-3, UPIII Western blot); type: in vivo, Sprague-Dawley rats; conditions: day 3 after spinal cord injury
# Text: The effect of YJ102 on urothelial cell apoptosis in bladder tissue after spinal cord injury was confirmed by TUNEL staining, and the protein levels of cleaved caspase-3 indicating caspase-3 activation, and UPIII as a urothelial marker were confirmed by Western blot analysis using p75 (Promega), cleaved caspase-3 (Cell signaling technology), and UPIII (Abcam) as primary antibodies. In addition, in order to confirm whether the mechanism of apoptosis was caused by a p75 neurotrophin receptor, which was involved in urothelial apoptosis, the expression level of p75 was confirmed by RT-PCR, Western blot analysis, and immunofluorescence staining. For RT-PCR analysis, the obtained bladder tissue sections were frozen in liquid nitrogen, and ground in a mortar and pestle to be completely lysed, and then RNA was isolated using a TRIZOL Reagent (Invitrogen) according to a manual, and 20 µl of the total mixture was prepared by using 1 µg of total RNA, and cDNA was synthesized using MMLV reverse transcriptase (Invitrogen).
# [4] = tested on: traumatic spinal cord injury (SCI) model; test: Urinary function analysis in SCI model (residual urine volume, UBFS, bladder size and weight); type: in vivo, Sprague-Dawley rats
# Experimental: To be used as a central nerve injury animal model, a traumatic spinal cord injury (SCI) model was prepared (FIG. 1A). Specifically, 230 to 250 g of male adult Sprague-Dawley rats were anesthetized by intraperitoneal injection of chloral hydrate (500 mg/kg), and then the back and neck regions were shaved, and the spinal cord under the back and neck regions was exposed without damaging the dura mater, and a laminectomy was performed at T9 to T10 levels. To stabilize the spine, the spinous processes of T8 and T11 were fixed, and the spine was damaged by free-falling a 10 g weight from a height of 25 mm using an NYU impactor onto the back surface of the exposed spinal cord and then the rats were left in a temperature and humidity-controlled chamber overnight while covering the muscles and skin. After surgery, the rats were subcutaneously injected with a supplement solution (5 ml, lactated ringer) and injected with antibiotics (gentamicin, 5 mg/kg, intramuscular injection) once daily for 5 days. The body weight, remaining food, and the weight of water were confirmed and recorded for all animals, and the bladder was emptied twice daily by passive bladder massage until reflex micturition was established. At this time, a Sham group was a group that was subjected to only laminectomy without damage.
# In order to confirm the effect of YJ102 (Chemical Formula 1), a compound of the present disclosure, on urinary disturbances caused by spinal cord injury, immediately after preparing the traumatic spinal cord injury (SCI) model (FIG. 1A) prepared in Example 1 above, YJ102 was dissolved in DMSO, methyl pyrrolidinone, and water (1 : 1.5 : 1) and administered intraperitoneally at 5 mg/kg, and then intraperitoneally administered at 24-hour intervals for 7 days from the next day. Thereafter, the effect of improving bladder functions was analyzed through a residual urine volume test and a urinary bladder function score (UBFS). At this time, a Vehicle group was administered with the same amount of a solution of DMSO, methyl pyrrolidinone, and water. Specifically, in order to determine the amount of urine remaining in the bladder after spinal cord injury, bladder extrusion was performed twice a day by applying pressure to the central bottom portion of the lower abdomen using the index and middle fingers to empty the bladder, and the expelled urine was collected in a catheter and its volume was recorded. […]
structure (smiles),measurement,setting,value
CCc1ccc(N(C(=O)COC)c2nc3cc(Cl)ccc3o2)cc1 [YJ102],expression of inflammatory factors,[1],significantly reduced
same,reduction of epidermal layer thickness compared to the Vehicle group,[2]; Day 6,approximately 35%
same,epidermal layer thickness,"[2]; Day 6, 5 mg/kg intraperitoneally, Sham 36.6 ± 2.3, Vehicle 141.3 ± 7.5",89.8 ± 6.8 µm
same,number of cells introduced into the dermal layer,"[2]; Day 6, skin tissue H&E",decreased to the Sham level
same,reduction of the level of UPIII (urothelial loss),[3]; Western blot,inhibited
same,caspase-3 activation,[3]; cleaved caspase-3 Western blot,inhibited
same,number of TUNEL-positive cells in the urothelium,[3]; vs Vehicle group,significantly reduced
same,bladder size,[4]; 5 mg/kg intraperitoneally,significantly reduced
same,bladder weight,[4]; 5 mg/kg intraperitoneally,significantly reduced
same,residual urine volume,"[4]; 5 mg/kg intraperitoneally at 24-hour intervals, vs Veh group, from the first day of administration",significantly reduced
same,bladder function restoration using the UBFS,"[4]; 5 mg/kg intraperitoneally, vs Vehicle group on day 3 and day 7 after spinal cord injury",significantly increased
